Earlier results as cited in article PMC3714282, “Pharmacometabolomics of Response to Sertraline and to Placebo in Major Depressive Disorder – Possible Role for Methoxyindole Pathway” (PLoS ONE, 2013).

Test system: arylalkylamine N-acetyltransferase (AANAT) mRNA
Parameters: method as in PMID 9951564
Settings: animal studies, chronic administration; cited from earlier work

CNCCC(Oc1ccc(C(F)(F)F)cc1)c1ccccc1 (stereo not shown) [fluoxetine]
brain arylalkylamine N-acetyltransferase (AANAT) mRNA: several-fold increase
